Results taken from PMC8242467 (Cell Reports, 2021).
Structures can show the parent of a compound that is named as a salt.

Target: T1, mitochondrial calcium uniporter (MCU) (Homo sapiens, UniProt Q8NE86)
T1 sequence (Q8NE86 51-351): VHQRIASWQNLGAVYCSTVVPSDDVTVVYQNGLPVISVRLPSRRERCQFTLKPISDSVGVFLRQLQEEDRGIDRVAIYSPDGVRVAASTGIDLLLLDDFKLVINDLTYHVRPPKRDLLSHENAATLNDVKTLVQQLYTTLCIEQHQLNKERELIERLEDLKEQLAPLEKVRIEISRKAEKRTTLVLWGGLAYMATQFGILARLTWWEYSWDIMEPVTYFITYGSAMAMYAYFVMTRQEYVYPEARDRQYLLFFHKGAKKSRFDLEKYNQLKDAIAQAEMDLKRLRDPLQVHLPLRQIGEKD
Assay: mitochondrial Ca2+ uptake in permeabilized HeLa cells
Assay type: cell-based

- EC50: 86.9 µM
SMILES: CCC(C)(C)c1ccc(CC(C)CN2C[C@@H](C)O[C@@H](C)C2)cc1 (stereo partly drawn) [amorolfine, (2R,6S)-2,6-dimethyl-4-[2-methyl-3-[4-(2-methylbutan-2-yl)phenyl]propyl]morpholine;hydrochloride]
